“Also recorded” adds a separate entry of the source. Like-named read-outs stand apart in the source and are kept apart here.
What was measured:
[1] = tested on: secondary alcohol dehydrogenase; assay: Activity of purified yeast-derived secondary alcohol dehydrogenase; assay type: biochemical, Pichia sp. NRRL Y-11,328; settings: for inhibition of secondary alcohol dehydrogenase activity (in words): primary alcohols tested at 10^-3 M
[2] = tested on: cell suspensions of C1-utilizers; assay: Production of 2-butanone from 2-butanol / sec-alcohol oxidation by cell suspensions of the strains tested; assay type: cell-based
Source text: The substrate specificity for the oxidation of C3 -C6 secondary alcohols by the strains of C1 -utilizers was studied.

[3] = tested on: secondary alcohol dehydrogenase (SADH); assay: Activity of purified secondary alcohol dehydrogenase (inhibition, substrate specificity, Km); assay type: biochemical, Pseudomonas sp. ATCC 21439; settings: for % inhibition of SADH activity: each inhibitor at a final concentration of 1 mM, spectrofluorometric; for relative percent rate of oxidation: 2-butanol = 100%
Experimental: Secondary alcohol dehydrogenase (SADH) from an obligate methanol utilizer, Pseudomonas sp. ATCC 21439 was purified as follows. […] 0.05 M sodium phosphate buffer, pH 7.0 with 0.5 mM dithiothretol (buffer A) and were disrupted sonically (5×1 min.). The crude extract was separated by centrifugation. The crude extract was heat-treated at 50° C. in a water bath for 10 minutes. The resulting precipitate was removed by centrifugation. To the supernatant solution, 25 ml of protamine sulfate solution (2% solution in 0.1 M Tris base) was added dropwise with continuous stirring. After standing for 30 minutes, the extract was centrifuged. The supernatant solution was fractionated with solid ammonium sulfate. The material precipitating between 30 and 60% saturation was collected and was dialized overnight against buffer A. The The dialized material was applied to a DEAE-cellulose column (3 cm by 35 cm) that had been equilibrated with buffer A. The secondary alcohol dehydrogenase activity was eluted in the void volume. This DEAE-cellulose eluate was concentrated by ammonium sulfate fractionation. Material precipitating between 30 and 50% ammonium sulfate saturation was collected by centrifugation and dialyzed overnight against A. This fraction was further washed and filtered through an Amicon unit with XM 50 membrane. The concentrated fraction (6 ml) inside the Amicon unit was applied to an Affi-Gel Blue column (0.8 cm×18 cm) which had been equilibrated with buffer A for affinity chromatography. The column was washed overnight with buffer A (0.18 ml./min.) and then was eluted with buffer A containing 5 mM NAD. Each 1 ml. fraction was collected.
The purified secondary alcohol dehydrogenase enzyme (SADH) may be used directly for converting C3 -C6 secondary alcohols to the corresponding methyl ketones by the procedures described above; however, a source of NAD^+ must be added to the reaction medium. One can determine the NAD-linked secondary alcohol dehydrogenase activity with a fluorescence spectrophotometer (Perkin Elmer, Model MPF 44A) by following the formation of reduced NAD (Ex 340 nm, Em 460 nm). The assay system (3 ml.) will typically contain: sodium phosphate buffer pH 7.0, 150 μmol; NAD 1.0 μmol; a given amount of enzyme preparation; and 20 μmol secondary alcohol. The reaction is started by the addition of secondary alcohol. One unit of SADH enzyme activity represents the reduction of one nmole NAD per minute.
The effect of metal-chelating agents and thioreagents on the activity of the purified SADH enzyme were studied. […] The possibility of ethanol or n-propanol as an inhibitor was studied.

[4] = tested on: cell-free particulate fraction of methane-grown methylotrophs; assay: Conversion of n-alkanes to sec. alcohols by cell-free particulate fractions: inhibitors and electron donors; assay type: biochemical
Source text: The conditions for preparing the cell suspensions or the cell-free particulate fractions from methane-grown methylotroph microorganisms is the same as described above.

[5] = tested on: Methylosinus trichosporium OB3b NRRL B-11,196; assay: Conversion of n-alkanes to oxidation products by cell suspensions; assay type: cell-based; settings: methane-grown cell suspension, pH 7.0
Experimental: (§1) ^(a) Cell-suspensions of methanegrown methylotroph microorganisms
(§2) indicated in 0.15 M phosphate buffer, pH 7.0 incubated in the alkanes as
(§3) indicated at 3° C. The oxidation products were determined by g.l.c

[6] = tested on: Methylococcus capsulatus CRL M1 NRRL B-11,219; assay: as above; assay type: cell-based; settings: methane-grown cell suspension, pH 7.0
Experimental: as §1, §2, §3

CC(O)CO (stereo not shown) [1,2-propandiol]
substrate specificity of purified yeast secondary alcohol dehydrogenase (in words) ([1]; spectrophotometric): not oxidized

CCC(C)=O [2-Butanone, 2-butanone]
product inhibition of 2-butanone production ([2]; exogenously supplied 2-butanone (8 μmoles) with viable cell suspensions): No product (2-butanone) inhibition; also recorded: did not inhibit
inhibition of SADH activity (in words) ([3]; purified SADH): inhibited

CCCCCC(C)O (stereo not shown) [2-heptanol]
substrate specificity: rate of oxidation of secondary alcohols (in words) ([2]; cell suspensions of C1-utilizers): oxidized at a much slower rate
substrate specificity of purified yeast secondary alcohol dehydrogenase (in words) ([1]; spectrophotometric): not oxidized

CCCCCCC(C)O (stereo not shown) [2-octanol]
substrate specificity of purified yeast secondary alcohol dehydrogenase (in words) ([1]; spectrophotometric): not oxidized

O=C(O)c1cc(SSc2ccc([N+](=O)[O-])c(C(=O)O)c2)ccc1[N+](=O)[O-] [5,5'-dithiobis(2-nitrobenzoic acid), reference compound]
% inhibition of SADH activity [3]: 100%
inhibition of SADH activity (in words) ([3]; purified SADH): inhibited

Oc1cccc2cccnc12 [8-hydroxyquinoline]
inhibition of conversion of n-alkanes to sec. alcohols (in words) [4]: inhibited

[Co+2] [Co^++, reference compound]
% inhibition of SADH activity [3]: 0%

CC [Ethane]
Conversion Rate to product Ethanol [5]: 1.3 μmoles/hr./mg./protein
Conversion Rate to product Ethanol [6]: 2.0 μmoles/hr./mg./protein

C [Methane]
Conversion Rate to product Methanol ([5]; […] phosphate buffer): 1.5 μmoles/hr./mg./protein
Conversion Rate to product Methanol [6]: 2.5 μmoles/hr./mg./protein

[Mg+2] [Mg^++, reference compound]
% inhibition of SADH activity [3]: 0%

[Mn+2] [Mn^++, reference compound]
% inhibition of SADH activity [3]: 0%

CCN1C(=O)C=CC1=O [N-ethylmalemide, N-ethylmaleimide, reference compound]
% inhibition of SADH activity [3]: 6%
inhibition of SADH activity (in words) ([3]; purified SADH): not inhibited

NC(=O)C1=CN([C@@H]2O[C@H](COP(=O)(O)OP(=O)(O)OC[C@H]3O[C@@H](n4cnc5c(N)ncnc54)[C@H](O)[C@@H]3O)[C@@H](O)[C@H]2O)C=CC1 [NADH, reduced nicotinamide adenine dinucleotide]
use as electron donor for hydroxylation of n-alkanes [4]: requires

NC(=O)C1=CN([C@@H]2O[C@H](COP(=O)(O)OP(=O)(O)OC[C@H]3O[C@@H](n4cnc5c(N)ncnc54)[C@H](OP(=O)(O)O)[C@@H]3O)[C@@H](O)[C@H]2O)C=CC1 [NADPH, reduced nicotinamide adenine dinucleotide phosphate]
use as electron donor for hydroxylation of n-alkanes [4]: could also be utilized as an electron donor

[N-]=[N+]=[N-] [Sodium azide, reference compound]
% inhibition of SADH activity [3]: 10%

NC(N)=S [Thiourea, reference compound]
inhibition of production of 2-butanone from 2-butanol (in words) ([2]; cell suspensions of the strains tested): not inhibited
% inhibition of SADH activity [3]: 0%
inhibition of SADH activity (in words) ([3]; purified SADH): not inhibited
inhibition of conversion of n-alkanes to sec. alcohols (in words) [4]: inhibited

[Zn+2] [Zn^++, reference compound]
stimulation of SADH activity by exogenous zinc [3]: did not stimulate
% inhibition of SADH activity [3]: 0%

CC=O [acetaldehyde]
substrate specificity of purified SADH (in words) [3]: lower rate
relative percent rate of oxidation [3]: 4%

O=Cc1ccccc1 [benzaldehyde]
substrate specificity of purified SADH (in words) [3]: not oxidized

CCCCO [butan-1-ol]
substrate specificity of purified yeast secondary alcohol dehydrogenase (in words) [1]: not oxidized

CCC(O)CO (stereo not shown) [butane 1,2-diol]
substrate specificity of purified SADH (in words) [3]: not oxidized
substrate specificity of purified yeast secondary alcohol dehydrogenase (in words) ([1]; spectrophotometric): not oxidized

CC(O)CCO (stereo not shown) [butane 1,3-diol]
substrate specificity of purified SADH (in words) [3]: lower rate
relative percent rate of oxidation [3]: 2%
substrate specificity of purified yeast secondary alcohol dehydrogenase (in words) ([1]; spectrophotometric): not oxidized

CC(O)C(C)O (stereo not shown) [butane 2,3-diol]
substrate specificity of purified SADH (in words) [3]: lower rate
relative percent rate of oxidation [3]: 2.5%

O=S(=O)([O-])[O-].[Cu+2] [cupric sulfate, reference compound]
inhibition of secondary alcohol dehydrogenase activity (in words) [1]: inhibited

[Cu+2] [cupric, reference compound]
% inhibition of SADH activity [3]: 25%

OC1CCCCC1 [cyclohexanol]
substrate specificity of purified SADH (in words) [3]: lower rate
relative percent rate of oxidation [3]: 4%

CCO [ethanol]
inhibition of SADH activity (in words) [3]: did not inhibit
substrate specificity of purified yeast secondary alcohol dehydrogenase (in words) [1]: not oxidized

[Fe+3] [ferric, reference compound]
% inhibition of SADH activity [3]: 35%

[Fe+2] [ferrous, reference compound]
% inhibition of SADH activity [3]: 50%

C=O [formaldehyde]
substrate specificity of purified SADH (in words) [3]: not oxidized

c1c[nH]cn1 [imidiazole, reference compound]
inhibition of secondary alcohol dehydrogenase activity (in words) [1]: strongly inhibited

O=C(O)CI [iodoacetic acid, reference compound]
inhibition of SADH activity (in words) [3]: not inhibited

CC(C)CO [isobutanol]
substrate specificity of purified SADH (in words) [3]: not oxidized

N#C[S][Hg][S]C#N [mercuric thiocyanate, reference compound]
inhibition of secondary alcohol dehydrogenase activity (in words) [1]: inhibited

CO [methanol]
substrate specificity of purified yeast secondary alcohol dehydrogenase (in words) ([1]; spectrophotometric): not oxidized

CCCO [n-propanol]
inhibition of SADH activity (in words) [3]: did not inhibit
substrate specificity of purified yeast secondary alcohol dehydrogenase (in words) [1]: not oxidized

[Ni+2] [nickel, reference compound]
% inhibition of SADH activity [3]: 20%

O=C(O)c1cc[c]([Hg+])cc1.[OH-] [p-hydroxymercuribenzoate, reference compound]
% inhibition of SADH activity [3]: 100%
inhibition of secondary alcohol dehydrogenase activity (in words) [1]: strongly inhibited

CCCCCO [pentan-1-ol]
substrate specificity of purified yeast secondary alcohol dehydrogenase (in words) ([1]; spectrophotometric): not oxidized

Oc1ccccc1 [phenol]
substrate specificity of purified SADH (in words) [3]: not oxidized

CCCO [propanol]
substrate specificity of purified SADH (in words) [3]: lower rate
relative percent rate of oxidation [3]: 2%

C=CC [propylene]
inhibition of conversion of n-alkanes to sec. alcohols (in words) [4]: inhibited
inhibition of conversion of n-alkanes to sec. alcohols (in words) ([4]; listed as Propylene): inhibit

O=[N+]([O-])[O-].[Ag+] [silver nitrate, reference compound]
inhibition of secondary alcohol dehydrogenase activity (in words) [1]: inhibited

O=C(O)CCC(=O)O [succinic acid]
substrate specificity of purified SADH (in words) [3]: not oxidized

NNC(N)=S [thiosemicarbazide]
inhibition of conversion of n-alkanes to sec. alcohols (in words) [4]: inhibited

cytochrome c [reference compound]
ability to act as electron acceptor/carrier ([1]; purified enzyme): could not act as electron carrier

— patent publication US4268630A, “Microbiological production of ketones from C3 -C6 alkanes” (priority 1979, dated 1981)
